Key:
[1] = target: T1, Alpha-glucosidase (Apis mellifera) (UniProt Q17058); assay: Inhibition of family 13 alpha-glucosidase isoform III from honey bee at 1 umol/mL
T1 sequence (whole entry): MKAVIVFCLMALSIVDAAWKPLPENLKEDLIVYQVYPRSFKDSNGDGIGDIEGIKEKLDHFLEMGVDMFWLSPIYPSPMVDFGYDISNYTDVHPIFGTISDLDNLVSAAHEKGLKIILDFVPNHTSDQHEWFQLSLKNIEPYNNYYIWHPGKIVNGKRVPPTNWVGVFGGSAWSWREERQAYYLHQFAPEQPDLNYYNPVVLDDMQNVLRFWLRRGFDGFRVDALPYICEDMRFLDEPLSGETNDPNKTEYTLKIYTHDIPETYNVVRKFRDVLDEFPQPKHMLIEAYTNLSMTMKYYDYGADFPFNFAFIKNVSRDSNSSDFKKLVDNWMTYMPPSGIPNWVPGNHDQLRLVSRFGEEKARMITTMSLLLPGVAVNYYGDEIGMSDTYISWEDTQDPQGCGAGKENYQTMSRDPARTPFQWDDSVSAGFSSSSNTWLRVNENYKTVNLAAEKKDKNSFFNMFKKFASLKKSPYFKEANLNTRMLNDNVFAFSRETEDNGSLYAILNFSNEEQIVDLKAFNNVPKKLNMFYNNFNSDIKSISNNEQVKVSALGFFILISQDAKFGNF

[2] = target: T2, Cytosolic beta-glucosidase (Homo sapiens) (UniProt Q9H227); assay: Inhibition of beta-Glucosidase at 2 umol/mL
T2 sequence (whole entry): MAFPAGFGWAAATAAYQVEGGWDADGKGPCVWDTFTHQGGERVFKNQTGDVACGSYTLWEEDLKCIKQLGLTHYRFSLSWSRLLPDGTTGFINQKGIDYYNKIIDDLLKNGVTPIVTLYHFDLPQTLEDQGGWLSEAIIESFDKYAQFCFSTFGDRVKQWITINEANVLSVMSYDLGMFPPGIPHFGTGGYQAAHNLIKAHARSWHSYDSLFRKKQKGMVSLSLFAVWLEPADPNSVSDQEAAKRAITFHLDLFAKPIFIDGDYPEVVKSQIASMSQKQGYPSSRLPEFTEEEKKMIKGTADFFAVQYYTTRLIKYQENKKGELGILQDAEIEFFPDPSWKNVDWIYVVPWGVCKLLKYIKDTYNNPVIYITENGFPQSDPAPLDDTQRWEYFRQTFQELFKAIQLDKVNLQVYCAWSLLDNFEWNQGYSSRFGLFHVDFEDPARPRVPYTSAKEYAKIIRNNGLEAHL

[3] = target: Alpha-glucosidase (Beta vulgaris) (UniProt O04931); assay: Inhibition of Sugar beet glucosidase (of family 31 alpha-glucosidase) at 1 umol/mL
[4] = target: T3, Lysosomal alpha-mannosidase (Homo sapiens) (UniProt O00754); assay: Inhibition of alpha-Mannosidase at 5 umol/mL
T3 sequence (whole entry): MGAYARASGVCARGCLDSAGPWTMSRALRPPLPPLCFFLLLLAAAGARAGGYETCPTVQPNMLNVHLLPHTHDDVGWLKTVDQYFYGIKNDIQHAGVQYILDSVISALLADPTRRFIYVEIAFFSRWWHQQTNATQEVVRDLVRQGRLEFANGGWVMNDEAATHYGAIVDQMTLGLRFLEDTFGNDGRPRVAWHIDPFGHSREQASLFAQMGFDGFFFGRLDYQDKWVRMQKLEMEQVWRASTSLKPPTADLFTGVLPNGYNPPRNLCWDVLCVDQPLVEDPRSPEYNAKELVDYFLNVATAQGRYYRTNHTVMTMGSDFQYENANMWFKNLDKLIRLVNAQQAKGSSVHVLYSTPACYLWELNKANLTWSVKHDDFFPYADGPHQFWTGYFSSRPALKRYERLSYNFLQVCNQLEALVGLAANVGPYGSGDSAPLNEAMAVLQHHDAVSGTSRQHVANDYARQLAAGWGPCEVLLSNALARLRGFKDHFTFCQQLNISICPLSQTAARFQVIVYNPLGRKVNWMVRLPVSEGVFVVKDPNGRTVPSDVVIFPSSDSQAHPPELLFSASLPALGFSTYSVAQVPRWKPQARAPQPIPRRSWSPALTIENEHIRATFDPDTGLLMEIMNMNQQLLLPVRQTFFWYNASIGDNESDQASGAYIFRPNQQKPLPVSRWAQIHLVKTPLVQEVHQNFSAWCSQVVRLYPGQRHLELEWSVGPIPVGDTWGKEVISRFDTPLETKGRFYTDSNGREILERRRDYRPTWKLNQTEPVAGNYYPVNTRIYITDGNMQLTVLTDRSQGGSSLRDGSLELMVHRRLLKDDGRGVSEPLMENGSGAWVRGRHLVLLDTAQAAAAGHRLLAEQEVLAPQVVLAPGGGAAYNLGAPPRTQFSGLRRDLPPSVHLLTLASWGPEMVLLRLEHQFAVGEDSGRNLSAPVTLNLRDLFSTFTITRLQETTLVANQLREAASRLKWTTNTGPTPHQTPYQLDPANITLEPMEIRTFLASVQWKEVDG

[5] = target: T4, Beta-mannosidase (Homo sapiens) (UniProt O00462); assay: Inhibition of beta-Mannosidase at 5 umol/mL
T4 sequence (whole entry): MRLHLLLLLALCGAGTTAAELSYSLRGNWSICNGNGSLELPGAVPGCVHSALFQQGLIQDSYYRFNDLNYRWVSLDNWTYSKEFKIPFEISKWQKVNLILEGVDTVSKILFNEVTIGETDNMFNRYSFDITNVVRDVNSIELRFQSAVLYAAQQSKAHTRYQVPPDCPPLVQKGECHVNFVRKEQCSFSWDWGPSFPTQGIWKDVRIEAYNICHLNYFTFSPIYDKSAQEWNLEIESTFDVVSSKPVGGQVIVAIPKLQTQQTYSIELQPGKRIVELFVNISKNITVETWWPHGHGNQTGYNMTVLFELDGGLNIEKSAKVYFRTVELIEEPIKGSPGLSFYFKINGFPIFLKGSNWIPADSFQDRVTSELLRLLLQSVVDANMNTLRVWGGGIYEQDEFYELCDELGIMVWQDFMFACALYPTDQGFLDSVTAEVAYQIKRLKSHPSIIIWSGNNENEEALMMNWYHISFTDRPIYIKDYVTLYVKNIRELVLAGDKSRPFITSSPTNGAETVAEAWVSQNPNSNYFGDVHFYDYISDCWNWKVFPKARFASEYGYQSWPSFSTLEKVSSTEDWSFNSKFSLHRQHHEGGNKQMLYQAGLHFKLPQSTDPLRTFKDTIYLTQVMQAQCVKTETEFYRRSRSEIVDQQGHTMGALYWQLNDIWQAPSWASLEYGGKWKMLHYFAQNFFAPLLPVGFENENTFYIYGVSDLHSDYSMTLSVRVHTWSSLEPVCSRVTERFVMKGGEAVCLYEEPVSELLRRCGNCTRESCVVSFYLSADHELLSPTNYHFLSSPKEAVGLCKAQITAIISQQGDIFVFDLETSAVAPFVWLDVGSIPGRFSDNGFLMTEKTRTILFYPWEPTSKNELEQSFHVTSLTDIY

Alpha-glucosidase (Beta vulgaris), sequence (O04931 whole entry): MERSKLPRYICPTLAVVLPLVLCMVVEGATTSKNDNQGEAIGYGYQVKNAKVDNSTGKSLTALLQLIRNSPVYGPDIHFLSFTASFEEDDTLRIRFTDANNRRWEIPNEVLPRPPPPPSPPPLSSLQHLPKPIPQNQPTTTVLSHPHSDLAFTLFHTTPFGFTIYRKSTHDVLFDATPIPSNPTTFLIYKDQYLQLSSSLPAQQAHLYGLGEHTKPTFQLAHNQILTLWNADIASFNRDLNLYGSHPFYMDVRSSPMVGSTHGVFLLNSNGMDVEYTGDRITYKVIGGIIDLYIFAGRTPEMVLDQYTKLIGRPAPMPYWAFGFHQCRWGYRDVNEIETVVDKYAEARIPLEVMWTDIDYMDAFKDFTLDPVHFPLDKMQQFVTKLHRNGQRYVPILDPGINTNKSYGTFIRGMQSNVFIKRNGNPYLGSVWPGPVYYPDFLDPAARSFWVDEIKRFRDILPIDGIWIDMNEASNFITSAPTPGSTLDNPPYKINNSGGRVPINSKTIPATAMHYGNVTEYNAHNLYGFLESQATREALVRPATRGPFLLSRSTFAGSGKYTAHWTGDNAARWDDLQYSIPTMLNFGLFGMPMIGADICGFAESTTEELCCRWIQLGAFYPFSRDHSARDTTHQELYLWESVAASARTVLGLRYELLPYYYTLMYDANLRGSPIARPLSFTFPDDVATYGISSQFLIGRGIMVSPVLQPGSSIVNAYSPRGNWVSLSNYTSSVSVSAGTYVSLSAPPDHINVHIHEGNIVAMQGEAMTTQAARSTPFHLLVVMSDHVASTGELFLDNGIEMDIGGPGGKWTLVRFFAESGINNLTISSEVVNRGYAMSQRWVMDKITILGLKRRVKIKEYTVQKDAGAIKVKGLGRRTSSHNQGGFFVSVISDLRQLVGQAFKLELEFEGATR

SMILES | inhibition [1] [%] | inhibition [2] [%] | inhibition ([3]; Beta vulgaris subsp. vulgaris) [%] | inhibition [4] [%] | inhibition [5] [%] | inhibition [3] [%]
CC(C)(C)C(=O)NCC1OC(CO)C(O)C(O)C1O (configuration not stated) | < 1 | < 1 | 3.2 | < 1 | < 1 | –
CC(=O)NCC1OC(CO)C(O)C(O)C1O (configuration not stated) | < 1 | < 1 | 8.8 | < 1 | < 1 | –
O=C(NCC1OC(CO)C(O)C(O)C1O)c1ccccc1 (configuration not stated) | < 1 | – | – | < 1 | – | 9.8

More lines, now with the values ahead:

inhibition [1] [%] | inhibition [2] [%] | inhibition ([3]; Beta vulgaris subsp. vulgaris) [%] | inhibition [4] [%] | inhibition [5] [%] | inhibition [3] [%] | SMILES
< 1 | < 1 | 6.9 | < 1 | < 1 | – | O=C(CO)NCC1OC(CO)C(O)C(O)C1O (configuration not stated)
3.2 | < 1 | 1.7 | < 1 | < 1 | – | O=C(CCO)NCC1OC(CO)C(O)C(O)C1O (configuration not stated)
< 1 | < 1 | 3.6 | – | < 1 | – | O=C(CCCO)NCC1OC(CO)C(O)C(O)C1O (configuration not stated)
< 1 | < 1 | 3.1 | < 1 | < 1 | – | O=C(CCCCO)NCC1OC(CO)C(O)C(O)C1O (configuration not stated)
< 1 | < 1 | 11.9 | < 1 | < 1 | – | O=C(CCCCCO)NCC1OC(CO)C(O)C(O)C1O (configuration not stated)

Source: ChEMBL document CHEMBL1142021, “Aglycon specificity profiling of alpha-glucosidases using synthetic probes” (Bioorg Med Chem Lett, 2005)
